Experimental findings from patent publication US20180208605A1, “Substituted Aza Compounds as IRAK-4 Inhibitors” (AURIGENE DISCOVERY TECHNOLOGIES LIMITED, priority 2015, published 2018) are described below.

For orientation: inhibition means the change of the read-out against control, counted positive when it falls.

For the experiment, the target named is T1, recombinant IRAK-4 kinase (Homo sapiens, UniProt Q9NWZ3).
T1 construct: purchased Millipore, USA
T1 sequence (Q9NWZ3 1-460): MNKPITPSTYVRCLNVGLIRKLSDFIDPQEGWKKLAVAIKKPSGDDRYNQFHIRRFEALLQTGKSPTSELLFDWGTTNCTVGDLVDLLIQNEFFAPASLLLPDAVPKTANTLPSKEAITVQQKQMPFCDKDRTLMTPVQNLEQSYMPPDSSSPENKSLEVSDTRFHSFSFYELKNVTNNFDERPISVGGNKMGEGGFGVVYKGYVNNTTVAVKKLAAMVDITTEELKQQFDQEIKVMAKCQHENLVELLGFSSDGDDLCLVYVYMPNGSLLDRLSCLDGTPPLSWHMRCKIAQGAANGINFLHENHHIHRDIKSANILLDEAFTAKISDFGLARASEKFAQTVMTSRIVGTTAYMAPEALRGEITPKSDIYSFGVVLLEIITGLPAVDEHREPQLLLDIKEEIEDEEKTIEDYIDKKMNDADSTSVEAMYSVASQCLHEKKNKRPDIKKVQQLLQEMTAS
The experiment in a line: IRAK-4 Biochemical Assay (TR-FRET, percent inhibition). The note with it: TR-FRET, 20 μM ATP, 100 nM Biotin Histone H3; for inhibition at 0.1 µM: read-out: % inhibition of IRAK-4 @0.1 μM, compound at 0.1 μM; for inhibition at 1 µM: read-out: % inhibition of IRAK-4 @ 1 μM, compound at 1 μM. The method, then:
Compounds were tested for their potential to inhibit IRAK-4 enzyme in a TR-FRET assay using recombinant IRAK-4 kinase from Millipore, USA. The assay buffer was 50 mM Tris-HCl pH 7.5, 20 mM MgCl2, 1 mM EGTA, 2 mM DTT, 3 mM MnCl2 and 0.01% Tween 20.5 ng of IRAK-4 kinase was used for the assay. After pre-incubation of enzyme with test compound for 30 minutes at room temperature, a substrate mixture containing 100 nM Biotin Histone H3 (Millipore, USA) and 20 μM ATP (Sigma, USA) was added and the reaction was incubated for 30 min. Post incubation, the reaction was stopped by the addition of stop mix containing 40 mM EDTA, 1 nM of Europium-Anti-Phospho-Histone H3 (Ser10) antibody (Perkin Elmer, USA) and 20 nM SureLight Allophycocyanin-Streptavidin (Perkin Elmer, USA). The fluorescence emission at 615 nm and 665 nm were measured at an excitation of 340 nm and the percent inhibition was estimated from the ratio of the fluorescence intensities [(F665/F615)×10000].
(In general: TR-FRET usually uses a lanthanide donor and a delayed reading to cut background.)

Counter-ions that a name gives are not always drawn.

As to `COC(=O)C1CN(c2cccc(C(=O)Nc3cc4sc(N5CCOCC5)nc4nc3N3CCCCC3)n2)C(=O)N1` (stereo not drawn) [Example 48, methyl 1-(6-((2-morpholino-5-(piperidin-1-yl)thiazolo[4,5-b]pyridin-6-yl)carbamoyl)pyridin-2-yl)-2-oxoimidazolidine-4-carboxylate], the inhibition at 0.1 µM was determined as 96% and the inhibition at 1 µM turned out to be 100%.

As for `O=C(Nc1cc2sc(N3CCOCC3)nc2nc1N1CCCCC1)c1cccc(N2CC(C(=O)O)NC2=O)n1` (stereo not drawn) [Example 49, 1-(6-((2-morpholino-5-(piperidin-1-yl)thiazolo[4,5-b]pyridin-6-yl)carbamoyl)pyridin-2-yl)-2-oxoimidazolidine-4-carboxylic acid], the inhibition at 0.1 µM came out at 79% and the inhibition at 1 µM was 96%.

For `O=C(Nc1cc2sc(N3CCOCC3)nc2nc1C1CC1)c1cncc(N2CCC(O)C2)n1` (stereo not drawn) [Example 50, N-(5-cyclopropyl-2-morpholinothiazolo[4,5-b]pyridin-6-yl)-6-(3-hydroxypyrrolidin-1-yl)pyrazine-2-carboxamide], the inhibition at 0.1 µM was determined as 67% and the inhibition at 1 µM turned out to be 95%.

On to `Nc1ccc(-c2cccc(C(=O)Nc3cc4sc(N5CCOCC5)nc4nc3C3CC3)n2)cn1` [Example 51, 6′-amino-N-(5-cyclopropyl-2-morpholinothiazolo[4,5-b]pyridin-6-yl)-[2,3′-bipyridine]-6-carboxamide], for which the inhibition at 0.1 µM amounted to 98%.

Regarding `Nc1cc(-c2cccc(C(=O)Nc3cc4sc(N5CCOCC5)nc4nc3C3CC3)n2)ccn1` [Example 52, 2′-amino-N-(5-cyclopropyl-2-morpholinothiazolo[4,5-b]pyridin-6-yl)-[2,4′-bipyridine]-6-carboxamide], the inhibition at 0.1 µM was 95% and the inhibition at 1 µM came to 96%.

In the case of `O=C(Nc1cc2sc(N3CCOCC3)nc2nc1N1CCCCC1)c1ccnc(N2CCC(O)C2)n1` (stereo not drawn) [Example 53, 2-(3-hydroxypyrrolidin-1-yl)-N-(2-morpholino-5-(piperidin-1-yl)thiazolo[4,5-b]pyridin-6-yl)pyrimidine-4-carboxamide], the inhibition at 0.1 µM came out at 90% and the inhibition at 1 µM came to 97%.

With `O=C(Nc1cc2sc(N3CCOCC3)nc2nc1N1CCCCC1)c1cncc(N2CCC(O)C2)n1` (stereo not drawn) [Example 54, 6-(3-hydroxypyrrolidin-1-yl)-N-(2-morpholino-5-(piperidin-1-yl)thiazolo[4,5-b]pyridin-6-yl)pyrazine-2-carboxamide hydrochloride], the inhibition at 0.1 µM was found to be 93% and the inhibition at 1 µM was found to be 97%.

For `O=C(Nc1cc2sc(N3CCOCC3)nc2nc1N1CCCCC1)c1cccc(N2CCCC(O)C2)n1` (stereo not drawn) [Example 55, 6-(3-hydroxypiperidin-1-yl)-N-(2-morpholino-5-(piperidin-1-yl)thiazolo[4,5-b]pyridin-6-yl)picolinamide], the inhibition at 0.1 µM came to 94% and the inhibition at 1 µM worked out at 98%.

Regarding `O=C(Nc1cc2sc(N3CCOCC3)nc2nc1N1CCCCC1)c1cccc(N2CCC(O)CC2)n1` [Example 56, 6-(4-hydroxypiperidin-1-yl)-N-(2-morpholino-5-(piperidin-1-yl)thiazolo[4,5-b]pyridin-6-yl)picolinamide], the inhibition at 0.1 µM was 95% and the inhibition at 1 µM is 96%.

Consider `CC(N)C(=O)O[C@H]1CCN(c2cccc(C(=O)Nc3cc4sc(N5CCOCC5)nc4nc3N3CCCCC3)n2)C1` (stereo partly drawn) [Example 57, (S)-1-(6-((2-morpholino-5-(piperidin-1-yl)thiazolo[4,5-b]pyridin-6-yl)carbamoyl)pyridin-2-yl)pyrrolidin-3-ylalaninate], for which the inhibition at 0.1 µM is 97% and the inhibition at 1 µM came out at 98%.

On to `CCOC(=O)O[C@H]1CCN(c2cccc(C(=O)Nc3cc4sc(N5CCOCC5)nc4nc3N3CCCCC3)n2)C1` [Example 58, (S)-ethyl (1-(6-((2-morpholino-5-(piperidin-1-yl)thiazolo[4,5-b]pyridin-6-yl)carbamoyl)pyridin-2-yl)pyrrolidin-3-yl)carbonate], for which the inhibition at 0.1 µM was found to be 71% and the inhibition at 1 µM was 96%.

Turning to `O=C(Nc1cc2sc(N3CCOCC3)nc2nc1N1CCCCC1)c1ccnc(N2CC[C@@H](O)C2)n1` [Example 59, (R)-2-(3-hydroxypyrrolidin-1-yl)-N-(2-morpholino-5-(piperidin-1-yl)thiazolo[4,5-b]pyridin-6-yl)pyrimidine-4-carboxamide], the inhibition at 0.1 µM came to 91% and the inhibition at 1 µM came to 99%.

As to `O=C(Nc1cc2sc(N3CCOCC3)nc2nc1N1CCCCC1)c1ccnc(N2CC[C@H](O)C2)n1` [Example 60, (S)-2-(3-hydroxypyrrolidin-1-yl)-N-(2-morpholino-5-(piperidin-1-yl)thiazolo[4,5-b]pyridin-6-yl)pyrimidine-4-carboxamide], the inhibition at 0.1 µM stood at 88% and the inhibition at 1 µM amounted to 94%.

On to `O=C1CN(c2cccc(C(=O)Nc3cc4sc(N5CCOCC5)nc4nc3N3CCCCC3)n2)CCN1` [Example 61, N-(2-morpholino-5-(piperidin-1-yl)thiazolo[4,5-b]pyridin-6-yl)-6-(3-oxopiperazin-1-yl)picolinamide], for which the inhibition at 0.1 µM came to 84% and the inhibition at 1 µM amounted to 91%.

For `O=C(Nc1cc2sc(N3CCOCC3)nc2nc1N1CCCCC1)c1cncc(N2CC[C@@H](O)C2)n1` [Example 62, (R)-6-(3-hydroxypyrrolidin-1-yl)-N-(2-morpholino-5-(piperidin-1-yl)thiazolo[4,5-b]pyridin-6-yl)pyrazine-2-carboxamide], the inhibition at 0.1 µM turned out to be 93% and the inhibition at 1 µM turned out to be 95%.

On to `O=C(Nc1cc2sc(N3CCOCC3)nc2nc1N1CCCCC1)c1cncc(N2CC[C@H](O)C2)n1` [Example 63, (S)-6-(3-hydroxypyrrolidin-1-yl)-N-(2-morpholino-5-(piperidin-1-yl)thiazolo[4,5-b]pyridin-6-yl)pyrazine-2-carboxamide], for which the inhibition at 0.1 µM was 95% and the inhibition at 1 µM came to 95%.

Regarding `NCC(=O)O[C@H]1CCN(c2nccc(C(=O)Nc3cc4sc(N5CCOCC5)nc4nc3N3CCCCC3)n2)C1` [Example 64, (S)-1-(4-((2-morpholino-5-(piperidin-1-yl)thiazolo[4,5-b]pyridin-6-yl)carbamoyl)pyrimidin-2-yl)pyrrolidin-3-yl glycinate], the inhibition at 0.1 µM came to 74% and the inhibition at 1 µM is 92%.

For `NCC(=O)O[C@H]1CCN(c2cncc(C(=O)Nc3cc4sc(N5CCOCC5)nc4nc3N3CCCCC3)n2)C1` [Example 65, (S)-1-(6-((2-morpholino-5-(piperidin-1-yl)thiazolo[4,5-b]pyridin-6-yl)carbamoyl)pyrazin-2-yl)pyrrolidin-3-yl glycinate], the inhibition at 0.1 µM was 92% and the inhibition at 1 µM was found to be 97%.

Take `NCC(=O)OC1CCN(c2cccc(C(=O)Nc3cc4sc(N5CCOCC5)nc4nc3N3CCCCC3)n2)CC1` [Example 66, 1-(6-((2-morpholino-5-(piperidin-1-yl)thiazolo[4,5-b]pyridin-6-yl)carbamoyl)pyridin-2-yl)piperidin-4-yl glycinate]: the inhibition at 0.1 µM was determined as 90% and the inhibition at 1 µM turned out to be 95%.

`O=C(Nc1cc2sc(N3CCOCC3)nc2nc1N1CCCCC1)c1cccc(-n2cnc(CO)c2)n1` [Example 67, 6-(4-(hydroxymethyl)-1H-imidazol-1-yl)-N-(2-morpholino-5-(piperidin-1-yl)thiazolo[4,5-b]pyridin-6-yl)picolinamide]: the inhibition at 0.1 µM was determined as 100% and the inhibition at 1 µM turned out to be 101%.

Take `O=C(Nc1cc2sc(N3CCOCC3)nc2nc1N1CCCCC1)c1cc(N2CC[C@H](O)C2)ccn1` [Example 68, (S)-4-(3-hydroxypyrrolidin-1-yl)-N-(2-morpholino-5-(piperidin-1-yl)thiazolo[4,5-b]pyridin-6-yl)picolinamide]: the inhibition at 0.1 µM is 23% and the inhibition at 1 µM was 38%.

Turning to `O=C(Nc1cc2sc(N3CCOCC3)nc2nc1N1CCCCC1)c1cccc(-n2cc(CO)cn2)n1` [Example 69, 6-(4-(hydroxymethyl)-1H-pyrazol-1-yl)-N-(2-morpholino-5-(piperidin-1-yl)thiazolo[4,5-b]pyridin-6-yl)picolinamide], the inhibition at 0.1 µM is 98% and the inhibition at 1 µM came out at 99%.

`NCc1cn(-c2cccc(C(=O)Nc3cc4sc(N5CCOCC5)nc4nc3N3CCCCC3)n2)cn1` [Example 70, 6-(4-(aminomethyl)-1H-imidazol-1-yl)-N-(2-morpholino-5-(piperidin-1-yl)thiazolo[4,5-b]pyridin-6-yl)picolinamide 2,2,2-trifluoroacetate]: the inhibition at 0.1 µM turned out to be 98% and the inhibition at 1 µM stood at 99%.
